What all share (type): cell-based, human
The subject of assay [1] is megakaryocytes before polyploidization derived from ES cells. Kind of assay: Ploidy assay: FACS after Hoechst and anti-CD41a staining. The note with it: for number of cells with 8N or greater: 10 μg/ml. As for the experimental part: After introduction of MYC and MBI1 genes, the resulting megakaryocytes (about 10^5) were cultured for about 30 days in the absence of doxycycline and presence of estradiol under the culturing conditions of 37° C. and presence of 5% CO2 to proliferate them to about 10^11. Culturing was continued further while changing the condition to the presence of doxycycline and absence of estradiol in order to suppress the expression of the MYC gene and the BMI1 gene in the thus proliferated megakaryocytic cell line and adding an ROCK inhibitor (Y27632; product of Wako Pure Chemicals) to the culture medium to give a concentration of 10 μM in order to determine the influence of Y27632 on polyploidization. On Day 7 after culturing was started while adding Y27632 to the culture medium, the degree of polyploidization was studied using FACS (FIG. 5).
The degree of polyploidization was studied (ploidy assay) by suppressing expression of MYC/BMI1 in the presence of 10 μM of Y27632 while inducing […] of BCL-XL, and culturing the resulting cells for 7 days.
Influence on polyploidization was studied by further treating the cells, which was subjected to the treatment of 2-7-4, with valproic acid. After suppression of expression of MYC/BMI1, forced expression of BCL-XL, treatment with the ROCK inhibitor (10 μM), and suppression of expression of p53, valproic acid (final concentration: 0.5 mM) was added to the medium and culturing was conducted at 39° C. for 7 days.
After suppression of expression of MYC/BMI1, forced expression of BCL-XL, and treatment with blebbistatin (10 μg/ml), the resulting cells were cultured at 39° C. for 7 days.
(§1) Next, the degree of polyploidization when the blebbistatin treatment was used in combination with the other treatments was studied. The cells were subjected to blebbistatin treatment in addition to the above-mentioned treatments in Section 2-7-5 and influence of them on polyploidization was studied. After suppression of expression of MYC/BMI1, forced expression of BCL-XL, treatment with a ROCK inhibitor (10 μM), suppression of expression of p53, and treatment with valproic acid (0.5 mM), treatment with blebbistatin (10 μg/ml) was conducted and then, the resulting cells were cultured at 39° C. for 7 days. […] Induction to mature megakaryocytes was therefore confirmed (lower graph in FIG. 13).

Assay [2] relates to iMKPC-type II cells. Kind of assay: Microscopic observation of polyploidization of iMKPC-type II. The conditions noted are these: 5 μg/ml; c-MYC and BMI1 off, BCL-XL forced, p53 knocked down. The source says: It was observed that by turning off the expression of c-MYC and BMI1, forcing expression of BCL-XL, and knocking down the p53 gene, the cells become increasingly polyploidized.

Assay [3] deals with megakaryocytes (CD41a+). Kind of assay: Growth curve and micrographs of cells treated with blebbistatin plus the other treatments. The conditions noted are these: 10 μg/ml with the other treatments, after culturing for 7 days. As for the experimental part: as §1
The subject of assay [4] is iMKPC-type II cells. Nature of the assay: Platelet production from iMKPC-type II cells: flow cytometry for CD41/CD42b. The note with it: 5 μM, 37° C., 3 days, with/without feeder cells and serum. As for the experimental part:
A platelet production efficiency was measured by using the following conditions in combination as shown in FIG. 17: use/non-use of feeder cells, use/non-use of Conditioned Medium, use of serum medium/use of serum-free medium, and administration/non-administration of blebbistatin.
Conditioned Medium was prepared by seeding 8×10^5 MMC-treated 10T1/2 cells on a 10-cm dish subjected to gelatin coating, changing the medium with 10 ml of a differentiation medium (EBM) containing SCF (50 ng/ml) and TPO (50 ng/ml) and further containing 15% serum or not containing a serum on the next day (after adhesion of cells), recovering the medium and adding 10 ml of a new medium (containing SCF and TPO) 24 hours later, pooling three-day's Conditioned Medium, and filtering the medium through a 0.22-μm filter to remove the 10T1/2 cells. When the resulting medium was used for tests, SCF and TPO were added newly. […]
The platelets contained in the supernatant of the medium were analyzed with a flow cytometer after staining with an antibody CD41 and an antibody CD42b. […]
Comparison in the expression level of CD42b in CD41-positive platelets in each population (a ratio of average fluorescence intensity of each population to average fluorescence intensity of normal condition) is shown in FIG. 18. […]
(In general: In flow cytometry, cells or beads pass a laser one at a time.)

The test system of assay [5] is iMKPC-type I cells. Kind of assay: Cytokine dependence of iMKPC-type I proliferation. The conditions noted are these: SCF 50 ng/ml, TPO 50 ng/ml, 37° C., 14 days, 10T1/2 feeder cells. As to the method:
The cytokine dependence of iMKPC-type I was studied by seeding 2×10^5 iMKPC-type I cells on 10T1/2 feeder cells and culturing them for 14 days at 37° C. under the conditions shown in FIG. 1A in the presence of 2 uM of β-estradiol while using the following cytokines: SCF (50 ng/ml), TPO (50 ng/ml), and EPO (6 U/ml). A population in which proliferation was confirmed on Day 4 and Day 11 was counted for cell number, and 2×10^5 cells were replated, while the medium of the other populations was changed. The number of cells was counted on Day 8 and Day 14 and 2×10^5 cells were replated. At the same time, on Day 8, some of the cells were analyzed with a flow cytometer after staining with a CD41 antibody, a CD42b antibody, and a GPA antibody.

Assay [6] concerns iMKPC-type II cells. Kind of assay: Cytokine dependence and surface markers of iMKPC-type II. The conditions noted are these: for proliferation of iMKPC-type II cells: SCF 50 ng/ml, TPO 50 ng/ml, 39° C., 21 days, Dox 0.5 μg/ml. As to the method: On 10T1/2 feeder cells, 2×10^5 iMKPC-type II cells were seeded, followed by culturing in the presence of 0.5 μg/ml of Dox at 39° C. for 21 days under the conditions of cytokines, that is, SCF (50 ng/ml), TPO (50 ng/ml), and EPO (6 U/ml).
On Day 21 after addition of cytokine, the cells were analyzed with a flow cytometer after staining with a CD41 antibody, a CD42b body, and a GPA antibody.

As for `C[C@@H](N)[C@H]1CC[C@H](C(=O)Nc2ccncc2)CC1.Cl.Cl.O` (relative stereo) [Y27632, (R)-(+)-trans-N-(4-pyridyl)-4-(1-aminoethyl)-cyclohexane carboxamide.2HCl.H2O], the “number of cells with 4N (degree of polyploidization)” value in assay [1] (10 μM, Day 7, MYC/BMI1 expression suppressed, compared with cells without inhibitor (vehicle)) is given as “increase in the number of cells with 4N”.
For `Cc1ccc2c(c1)C(=O)C1(O)CCN(c3ccccc3)C1=N2` (centres unmarked) [blebbistatin], in assay [1] (39° C., 7 days, MYC/BMI1 suppressed, BCL-XL forced, ROCK inhibitor 10 μM, p53 suppressed, valproic acid 0.5 mM, vs control cells), the “number of cells with 8N or greater” value is recorded as “greater”. Moreover, the “number of cells with 8N or greater” value in assay [1] (39° C., 7 days, MYC/BMI1 suppressed, BCL-XL forced, vs cells without blebbistatin) is reported as “greater”. In addition, the “polyploidization by microscopic observation” value in assay [2] is given as “polyploidized further”. Moreover, in assay [3], the “cell morphology (cytoplasm)” value is listed as “hypertrophy of cytoplasm was observed” and the proliferation capacity entry is “slight deterioration in proliferation capacity”. In assay [4], the “expression level of CD42b in CD41-positive platelets (ratio of average fluorescence intensity to normal condition)” value was “Influence of blebbistatin was not found” and the “platelet production amount (ratio of number of CD41+ CD42b+ platelets to normal condition)” value is “No significant difference”.
`CCCC(CCC)C(=O)O` [valproic acid]: the degree of polyploidization result in assay [1] (0.5 mM, 39° C., 7 days, MYC/BMI1 suppressed, BCL-XL forced, ROCK inhibitor 10 μM, p53 suppressed, vs untreated control cells) is reported as “promoted polyploidization”.
As for “SCF: cytokine added to the culture medium (50 ng/ml)”, the “proliferation of iMKPC-type I cells” value in assay [5] is recorded as “strongly depended on SCF”. For the same compound, the “proliferation of iMKPC-type II cells” value in assay [6] is “SCF had no influence on proliferation”.
For “TPO: cytokine added to the culture medium (50 ng/ml)”, in assay [5], the “proliferation of iMKPC-type I cells” value was “TPO had no influence on their proliferation”. In addition, the “expression of CD41a and CD42b” value in assay [6] (Day 21 after addition of cytokine, compared with the other populations) is “higher expression in CD41a and CD42b”. In assay [6], the “proliferation of iMKPC-type II cells” value is “proliferation is promoted further”.

Values taken from patent US10533185B2, “Method for producing polyploidized megakaryocyte and platelets” (The University of Tokyo, priority 2011, dated 2020).
